Key:
Histone deacetylase 1 = Histone deacetylase 1 (Homo sapiens, UniProt Q13547); test: Inhibition of human recombinant His6-tagged and GST-fuses HDAC1 expressed in insect High5 cells using Ac-Lys-Tyr-Lys(e-acetyl)-AMC as substrate after 24 hrs by fluorescence assay
Histone deacetylase 3 = Histone deacetylase 3 (Homo sapiens, UniProt O15379); test: Inhibition of human recombinant His6-tagged and GST-fuses HDAC3 expressed in insect High5 cells using Ac-Lys-Tyr-Lys(e-acetyl)-AMC as substrate after 24 hrs by fluorescence assay
Histone deacetylase 3, sequence (O15379 whole entry): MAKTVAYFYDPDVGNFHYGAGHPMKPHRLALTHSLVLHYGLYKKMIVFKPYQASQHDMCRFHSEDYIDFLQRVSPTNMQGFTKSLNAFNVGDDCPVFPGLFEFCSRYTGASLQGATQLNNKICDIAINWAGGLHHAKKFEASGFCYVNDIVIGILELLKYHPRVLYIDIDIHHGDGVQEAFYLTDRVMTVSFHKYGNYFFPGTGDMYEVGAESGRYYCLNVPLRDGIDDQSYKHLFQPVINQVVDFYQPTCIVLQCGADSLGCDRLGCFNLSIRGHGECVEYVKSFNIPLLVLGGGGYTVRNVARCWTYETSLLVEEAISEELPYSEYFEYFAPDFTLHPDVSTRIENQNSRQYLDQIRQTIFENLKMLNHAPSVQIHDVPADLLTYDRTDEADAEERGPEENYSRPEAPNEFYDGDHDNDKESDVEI

[1] = target: T1, Protein deacetylase HDAC6 (Homo sapiens, UniProt Q9UBN7); test: Inhibition of human recombinant His6-tagged and GST-fuses HDAC6 expressed in insect High5 cells using Boc-Lys(eacetyl)- AMC as substrate after 3 hrs by fluorescence assay
T1 sequence (Q9UBN7 whole entry): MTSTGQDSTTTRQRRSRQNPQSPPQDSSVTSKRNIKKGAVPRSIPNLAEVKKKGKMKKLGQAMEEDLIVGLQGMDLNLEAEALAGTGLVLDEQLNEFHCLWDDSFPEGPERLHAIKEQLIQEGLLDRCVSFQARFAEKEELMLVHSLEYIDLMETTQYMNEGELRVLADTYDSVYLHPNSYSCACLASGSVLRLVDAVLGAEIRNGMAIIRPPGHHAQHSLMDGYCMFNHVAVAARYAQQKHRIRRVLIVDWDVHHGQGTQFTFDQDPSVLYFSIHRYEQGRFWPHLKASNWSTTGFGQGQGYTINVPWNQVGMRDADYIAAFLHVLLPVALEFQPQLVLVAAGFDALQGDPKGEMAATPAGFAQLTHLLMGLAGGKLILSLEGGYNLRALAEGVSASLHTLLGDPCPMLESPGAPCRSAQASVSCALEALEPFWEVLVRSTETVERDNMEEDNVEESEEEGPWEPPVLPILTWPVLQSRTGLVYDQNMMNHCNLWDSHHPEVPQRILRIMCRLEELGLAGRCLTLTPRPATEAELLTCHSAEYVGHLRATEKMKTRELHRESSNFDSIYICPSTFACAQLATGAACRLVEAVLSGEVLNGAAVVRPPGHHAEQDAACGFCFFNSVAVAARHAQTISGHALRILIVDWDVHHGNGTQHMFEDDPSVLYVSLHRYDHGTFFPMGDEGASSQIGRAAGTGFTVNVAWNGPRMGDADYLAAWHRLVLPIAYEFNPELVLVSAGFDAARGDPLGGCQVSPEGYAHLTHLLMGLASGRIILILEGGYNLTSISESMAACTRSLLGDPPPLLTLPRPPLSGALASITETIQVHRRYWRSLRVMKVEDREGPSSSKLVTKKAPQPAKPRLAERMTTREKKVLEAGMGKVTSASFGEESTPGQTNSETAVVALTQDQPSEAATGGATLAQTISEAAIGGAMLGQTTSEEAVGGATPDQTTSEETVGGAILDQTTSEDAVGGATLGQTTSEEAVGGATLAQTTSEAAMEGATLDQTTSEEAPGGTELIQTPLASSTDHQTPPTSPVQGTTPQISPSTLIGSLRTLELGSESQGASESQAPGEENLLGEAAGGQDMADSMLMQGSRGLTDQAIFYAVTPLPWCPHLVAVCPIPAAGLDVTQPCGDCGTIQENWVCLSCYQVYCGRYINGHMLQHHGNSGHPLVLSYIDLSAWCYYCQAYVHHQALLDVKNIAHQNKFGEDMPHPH

Histone deacetylase 1, sequence (Q13547 whole entry): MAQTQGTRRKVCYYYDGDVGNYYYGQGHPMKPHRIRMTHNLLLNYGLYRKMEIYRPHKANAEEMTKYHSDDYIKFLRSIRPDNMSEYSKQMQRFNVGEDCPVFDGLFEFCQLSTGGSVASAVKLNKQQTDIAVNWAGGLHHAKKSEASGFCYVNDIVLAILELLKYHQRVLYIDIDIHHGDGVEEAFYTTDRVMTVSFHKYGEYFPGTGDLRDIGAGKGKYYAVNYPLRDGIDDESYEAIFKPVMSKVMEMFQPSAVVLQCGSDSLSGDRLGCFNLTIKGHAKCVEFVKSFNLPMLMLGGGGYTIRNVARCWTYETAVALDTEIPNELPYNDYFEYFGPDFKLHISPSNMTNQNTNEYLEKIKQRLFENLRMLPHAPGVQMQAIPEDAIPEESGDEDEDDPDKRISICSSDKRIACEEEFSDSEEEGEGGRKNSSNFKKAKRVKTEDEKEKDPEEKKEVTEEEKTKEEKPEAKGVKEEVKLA

Compound | IC50 (Histone deacetylase 1) [µM] | IC50 (Histone deacetylase 3) [µM] | IC50 [1] [µM]
O=C(Nc1ccc(C(=O)N2CCc3nc(C(=O)NO)sc3C2)cc1)c1ccc(-c2ccccc2)s1 | 2.59 | 2.66 | 0.12
C=CCCC(=O)NCCCN1CCc2nc(C(=O)NO)sc2C1 |  |  | 58.7
COc1ccc(/C=C/C(=O)Nc2ccc(C(=O)N3CCc4nc(C(=O)NO)sc4C3)cc2)cc1 | 22.5 | 16.1 | 0.45
C=CCCC(=O)Nc1ccc(C(=O)N2CCc3nc(C(=O)NO)sc3C2)cc1 | 9.7 | 9.38 | 0.39
O=C(/C=C/c1ccccc1)NCCCCN1CCc2nc(C(=O)NO)sc2C1 | 40.1 | 26.4 | 23.2
O=C(NCCCCN1CCc2nc(C(=O)NO)sc2C1)c1ccc(-c2ccccc2)s1 | 6.08 | 4.89 | 2.69
CC(c1ccc(NC(=O)c2ccc(-c3ccccc3)s2)nc1)N1CCc2nc(C(=O)NO)sc2C1 (centres undefined) | 2.96 | 1.94 | 1.33
COc1ccc(/C=C/C(=O)NCCCCN2CCc3nc(C(=O)NO)sc3C2)cc1 | 35.1 | 34.1 | 9.55
COc1ccc(/C=C/C(=O)NCCCN2CCc3nc(C(=O)NO)sc3C2)cc1 | 10.3 | 6.62 | 8.77
O=C(/C=C/c1ccccc1)NCCCN1CCc2nc(C(=O)NO)sc2C1 | 39.4 | 13.5 | 13.5

Further compounds by falling IC50 [1], results first:

IC50 (Histone deacetylase 1) [µM] | IC50 (Histone deacetylase 3) [µM] | IC50 [1] [µM] | Compound
 |  | 24.7 | C=CCCC(=O)NCCCCN1CCc2nc(C(=O)NO)sc2C1
65.7 | 19.2 | 13.5 | C=CCCC(=O)Nc1ccc(C(C)N2CCc3nc(C(=O)NO)sc3C2)cn1 (centres undefined)
5.67 | 5.09 | 3.39 | O=C(NCCCN1CCc2nc(C(=O)NO)sc2C1)c1ccc(-c2ccccc2)s1
6.8 | 5.7 | 1.55 | COc1ccc(/C=C/C(=O)Nc2ccc(C(C)N3CCc4nc(C(=O)NO)sc4C3)cn2)cc1 (centres undefined)
11.5 | 2.19 | 1.22 | CC(C)N(C(=O)/C=C/c1ccccc1)c1cccc(CN2CCc3nc(C(=O)NO)sc3C2)c1
6.8 | 4.8 | 1.07 | CC(c1ccc(NC(=O)/C=C/c2ccccc2)nc1)N1CCc2nc(C(=O)NO)sc2C1 (centres undefined)
